This is an account of results in paper PMC3397457, “Preclinical Evaluation of Anticancer Efficacy and Pharmacological Properties of FBA-TPQ, a Novel Synthetic Makaluvamine Analog” (Marine Drugs, 2012).

One series relates to Mia PaCa-2 cells. The experiment in a line: MTT cell survival assay, Mia PaCa-2. Format: cell-based. As to conditions: Homo sapiens, Mia PaCa-2, 72 h, read-out: Cytotoxicity IC50. Here is the method: (§1) We evaluated the effects of FBA-TPQ on the survival of several human pancreatic cancer cell lines, including HPAC (p53^+/+), Panc-1(p53^+/−), and Mia PaCa-2(p53^+/−), as well as normal IRM90 fetal fibroblast cells (Figure 2a). Cells were exposed to various concentrations of the test compound (0–10 µM) for 72 h, and cell survival rates were determined by the MTT assay, using a procedure reported previously. FBA-TPQ exerted potent effects against the test cancer cell lines, leading to significant decreases in cell viability.
(§2) Human pancreatic cancer cells were obtained from the American Type Culture Collection (Rockville, MD). All cell culture media contained 10% FBS and 1% penicillin/streptomycin. […]
(§3) The effect of the test compound on human pancreatic cancer cell viability, expressed as the percentage of cell survival, was determined using the MTT (3-(4,5-dimethylthiazol-2-yl)-2,5-diphenyl tetrazolium bromide) assay. […] The absorbance at 570 nm was recorded using an OPTImax microplate reader (Molecular Devices; Sunnyvale, CA, USA). The cell survival percentages were calculated by dividing the mean OD of compound-containing wells by that of DMSO-containing control wells. […]

The nature of series [1]: Plasma protein binding by micro-ultrafiltration. The class given is in vitro ADME. As to conditions: pooled mouse plasma, 37 °C 1 h, read-out: bound to plasma proteins (converted). On the procedure:
To determine the extent to which FBA-TPQ is bound by plasma proteins, pooled plasma samples were examined for their capacity to bind the compound at concentrations of 0.5 μM and 5 μM. FBA-TPQ was considerably bound to proteins in mouse plasma, with 72.32% ± 2.53%; and 77.78% ± 1.17% of the compound being bound to plasma proteins at concentrations of 0.5 μM and 5.0 μM, respectively. Extensive binding of a candidate compound to plasma proteins can impair its biodistribution and may therefore impact its therapeutic efficacy. However, compounds that are highly bound to proteins display longer half-lives, durations of action, and higher volumes of distribution.
The extent of binding to mouse plasma proteins by FBA-TPQ was determined using a micro-ultrafiltration system as previously described. FBA-TPQ was dissolved in methanol and added to pooled mouse plasma to yield final concentrations of 0.5 µM and 5.0 µM. Control solutions were prepared in methanol to account for non-specific binding of FBA-TPQ to the filter membranes. Duplicate preparations of each concentration were incubated at 37 °C for 1 h, before being placed into the sample reservoirs of Amicon Centrifree® ultrafiltration tubes (30 kDa exclusion; Millipore).

A further series concerns Panc-1 cells. The experiment in a line: Cell cycle distribution by flow cytometry, Panc-1. The class given is cell-based, human. As to conditions: Panc-1, 1 µM. On the procedure: The effects of FBA-TPQ on cell cycle distribution were analyzed using the previously reported methods; its effects appeared to be cell-line-dependent (Figure 2c). […] The differences in the responses of the different cell lines may be related to their expression of p53.
To determine the effect of FBA-TPQ on the cell cycle, cells (2–3 × 10^5) were exposed to the test compounds (0, 0.1, 0.5 or 1 µM) and incubated for 24 h prior to analysis. Cells were trypsinized, washed with PBS, and fixed in 1.5 mL of 95% ethanol and 0.5 mL of 0.9% saline solution at 4 °C overnight, followed by incubation with RNAse and staining with propidium iodide (Sigma). The DNA content was determined by flow cytometry. The cell cycle distribution was evaluated by comparing with that of the control cells.

In series [2] the test system is human pancreatic cancer cell lines (HPAC, Panc-1, Mia PaCa-2). The experiment in a line: MTT cell survival assay, pancreatic cancer cell lines taken together. Format: cell-based. Conditions: 72 h. Here is the method:
as §1
The effect of the test compound on human pancreatic cancer cell viability, expressed as the percentage of cell survival, was determined using the MTT (3-(4,5-dimethylthiazol-2-yl)-2,5-diphenyl tetrazolium bromide) assay. The MTT assay is colorimetric assay for measuring the activity of enzymes that reduce MTT to formazan dyes, giving a purple color. Cells were grown in 96-well plates at 4–5 × 10^3 cells per well and exposed to different concentrations of the test compound (0, 0.1, 0.25, 0.5, 0.75, 1, 5 and 10 µM). […] The absorbance at 570 nm was recorded using an OPTImax microplate reader (Molecular Devices; Sunnyvale, CA, USA). The cell survival percentages were calculated by dividing the mean OD of compound-containing wells by that of DMSO-containing control wells. […]

Series [3] deals with HPAC cells. The experiment in a line: Annexin V apoptosis assay/flow cytometry, HPAC. Format: cell-based, human. As to conditions: 1 µM, 48 h. On the procedure:
The apoptotic cells were detected using a method reported previously. […] In HPAC cells, a 1 µM concentration of FBA-TPQ increased the apoptotic index two-fold higher than that seen in control cells (P < 0.01). […] In the Mia PaCa-2 cells, FBA-TPQ at 1 µM led to a three-fold increase in apoptosis (P < 0.01).
Following a similar protocol as above, cells in early and late stages of apoptosis were detected using an Annexin V-FITC apoptosis detection kit from BioVision (Mountain View, CA, USA), according to the manufacturer’s protocol. For apoptosis experiments, 2–3 × 10^5 cells were exposed to the test compound (0, 0.1, 0.5 and 1.0 µM) and incubated for 48 h prior to analysis. Cells were collected and washed with serum-free media. Cells were then re-suspended in 500 µL of Annexin V binding buffer followed by addition of 5 µL of Annexin V-FITC and 5 µL of propidium iodide (PI). The samples were incubated in the dark for 5 min at room temperature and analyzed with a Becton Dickinson FACSCalibur instrument (Ex = 488 nm; Em = 530 nm). Cells that were positive for Annexin V-FITC alone (early apoptosis) and Annexin V-FITC and PI (late apoptosis) were counted. The apoptotic index was calculated against the untreated control cells.

Series [4] has as its system HPAC cells. The experiment in a line: MTT cell survival assay, HPAC. The class given is cell-based. As to conditions: Homo sapiens, 72 h, read-out: Cytotoxicity IC50. Here is the method:
as §1, §2, §3

As to `O=C1C(NCc2ccc(F)cc2)=CC2=NCCc3c[nH]c1c32` [FBA-TPQ, 7-(4-fluorobenzylamino)-1,3,4,8-tetrahydropyrrolo[4,3,2-de]quinolin-8(1H)-one], the IC50 in the series with Mia PaCa-2 cells is 320 ± 10 nM; in the series with HPAC cells [4] it was 540 ± 30 nM. The fraction unbound at 1 h, 0.5 µM in series [1] (0.5 μM) is 0.277. Moreover, the fraction unbound at 1 h, 5 µM in series [1] (5.0 μM) was 0.222. The cell cycle arrest entry in the series with Panc-1 cells was “arrest in the S phase”. Besides, the “differences in IC50, normal IMR90 fibroblasts vs pancreatic cancer cells” value in series [2] is recorded as 10–50 fold. Further, the “increase of apoptotic index vs control cells” value in the series with HPAC cells [3] is recorded as “two-fold”.
